Measured values reported in US8048869B2, “Pharmaceutical composition for use in hormone replacement therapy” (Pantarhei Bioscience B.V., priority 2001, dated 2011).

How the values were obtained:
[1] = target: T1, human sex Hormone Binding Globulin (SHBG) (Homo sapiens, UniProt P04278); assay: Competitive steroid-binding assay, SHBG; settings: [3H]DHT or [3H]estradiol as labeled ligands (FIG. 6)
T1 construct: Human SHBG was purified from transgenic mouse serum, as described previously; from tissue; host or cells: serum of mice transgenic for human SHBG
T1 sequence (P04278 30-402): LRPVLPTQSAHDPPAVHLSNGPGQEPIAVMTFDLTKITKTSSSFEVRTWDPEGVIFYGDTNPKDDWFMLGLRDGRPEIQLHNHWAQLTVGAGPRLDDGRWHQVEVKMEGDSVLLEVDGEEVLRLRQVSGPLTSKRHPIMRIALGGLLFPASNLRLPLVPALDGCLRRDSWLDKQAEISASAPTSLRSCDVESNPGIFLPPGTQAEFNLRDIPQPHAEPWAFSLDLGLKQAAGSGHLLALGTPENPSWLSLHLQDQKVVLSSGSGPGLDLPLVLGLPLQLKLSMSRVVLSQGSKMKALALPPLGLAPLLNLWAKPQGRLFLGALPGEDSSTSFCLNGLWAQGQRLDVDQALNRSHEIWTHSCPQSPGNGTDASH
Protocol: Human SHBG was treated for 30 min at room temperature with a dextran-coated charcoal (DCC) suspension in phosphate buffered saline (PBS) to remove any steroid ligand. After centrifugation (2,000×g for 10 min) to sediment the DCC, the supernatant containing the human SHBG was diluted in PBS to a concentration of 1 nM based on its steroid binding capacity.
After incubation for 1 h at room temperature the. reaction mixtures were placed in an ice bath for a further 15 muin. […] The average amounts of [^3H]labeled ligands bound to SHBG at each concentration of competitor (B) were expressed as a percentage of the average amounts of [^3H]labeled ligands bound to SHBG in the absence of competitor (B0), and were plotted against the concentration of competitor in each assay tube.

OVX-rats [2] = assay: pQCT densitometry of proximal tibiae, ovariectomized aged rat osteoporosis model; format: in vivo; settings: po, 0.1 mg/kg/day, 4 weeks, proximal tibiae
Protocol: (§1) The ovariectomized aged rat was used as a model for the human disease osteoporosis. This is an established animal model, recommended by the United States Food and Drug Administration (FDA), to evaluate and assess potential agents for osteoporosis prevention and therapy. The anti-resorptive efficacy of estetrol (E4) was tested by ex vivo measuring total and trabecular bone mineral density and bone strength after 4 weeks of treatment at necropsy. 17α-ethinyl-estradiol (EE) and vehicle (1% ethanol/arachidis oil) served as controls in this bioassay.
(§2) Three months old female Sprague-Dawley rats were either sham-operated (Sham) or ovariectomized (OVX) one day prior to commencement of the dosing study. Animals were anesthetized using a ketamine/xylazine anesthetic mixture and underwent a bilateral ovariectomy or were sham-treated. A section of hair on the dorsal surface was shaved and an incision made overlying the lumbar region of the spine. The skin was separated from the underlying fascia so that a second incision could be made through the abdominal musculature approximately caudal to the kidneys. The ovaries were then exteriorized and removed and the musculature was closed with a single suture. The skin incision was closed using surgical staples.
Ten animals per treatment group were orally dosed once per day for four consecutive weeks. […] Vehicle control was daily administered to one group of OVX-animals and sham-operated rats. After treatment, anesthetized rats were subjected to cardiac puncture and asphyxiated by CO2 inhalation. Tibiae and femura were removed, cleaned of soft-tissue and fixed and stored in 70% ethanol/saline at 4° C. (tibia) or saline at 4° C. (femura) until fuirther analysis.
Ex vivo peripheral Quantitative Computed Tomography (pQCT) was performed on the excised left tibiae using a Stratec XCT-RM and associated software (Stratec Medizintechnik GmbH, Pforzheim; Germany, software version 5.40). The scans were performed at 12% of the total length from the proximal end of the tibiae. The positions were verified using scout views and one 0.5-mm slice perpendicular to the long axis of the tibial shaft was acquired from each site. The scans were analyzed using a threshold for delineation of the external boundary. The total and trabecular bone mineral content, area and density at each site were determined. Furthermore, pQCT data for mean total bone mineral density are depicted in FIG. 1.

OVX-rats [3] = assay: Indentation test of distal femur (bone biomechanical strength), OVX rat; format: in vivo; settings: po, 0.1 mg/kg/day, 4 weeks, distal femur
Protocol: as §1, §2
Ten animals per treatment group were orally dosed once per day for four consecutive weeks. The dosing commenced 1 day after surgical removal of the ovaries and was administered by oral gavage using a syringe and stainless steel gavage needle at doses of 0.1 mg/kg /day EE, or either 2.5, 0.5 or 0.1 mg/kg/day E4. Vehicle control was daily administered to one group of OVX-animals and sham-operated rats. After treatment, anesthetized rats were subjected to cardiac puncture and asphyxiated by CO2 inhalation. Tibiae and femura were removed, cleaned of soft-tissue and fixed and stored in 70% ethanol/saline at 4° C. (tibia) or saline at 4° C. (femura) until fuirther analysis.
Ex vivo evaluation of bone biomechanical strength was performed with an indentation test at the distal femura. Prior to mechanical testing femura were rinsed in cold saline and carefully cleaned of any remaining adherent soft tissue. A 3-mm segment of the distal femoral metaphysis was cut directly proximal to the femoral condyle with a low-speed diamond saw under constant saline irrigation. The load was applied with a cylindrical indenter (with a flat testing face of 1.6 mm diameter) to the center of marrow cavity on the distal face of the segment. The indenter was allowed to penetrate the cavity at a constant displacement of 6 mm/min to a depth of 2 mm before load reversal.
The maximum load, stiffness and energy absorbed were determined from load displacement curves. Ultimate strength was calculated by dividing the maximum load by the indenter area. Furthermore, mean ultimate strength values are depicted in FIG. 2. […] Reductions in maximum load, stiffness, energy and ultimate strength were −68%, −68%, −27% and −68%, respectively, clearly accompanying the bone mineral density loss in estrogen deficient rats.

Row | SMILES | relative binding affinity for human SHBG [1] | Mean Total Bone Mineral Area (OVX-rats [2]) [mm^2] | Mean Total Bone Mineral Content (OVX-rats [2]) [mg/mm] | Mean Total Bone Mineral Density (OVX-rats [2]) [mg/mL] | Mean Trabecular Bone Mineral Area (OVX-rats [2]) [mm^2] | Mean Trabecular Bone Mineral Content (OVX-rats [2]) [mg/mm] | Mean Trabecular Bone Mineral Density (OVX-rats [2]) [mg/mL] | Energy (OVX-rats [3]) [mJ] | Maximum load (OVX-rats [3]) [N] | Stiffness (OVX-rats [3]) [N/mm] | Ultimate strength (OVX-rats [3]) [N/mm2]
1 | C[C@]12CCC(=O)C[C@@H]1CC[C@@H]1[C@@H]2CC[C@]2(C)[C@@H](O)CC[C@@H]12 [5α-dihydrotestosterone] | in this order, show an increased relative binding affinity |  |  |  |  |  |  |  |  |  | 
2 | C#C[C@]1(O)CC[C@H]2[C@@H]3CCc4cc(O)ccc4[C@H]3CC[C@@]21C [EE, 17α-ethinyl estradiol, reference compound] |  | 13.87 | 9.66 | 697.48 | 6.24 | 1.81 | 290.16 | 0.53 | 9.05 | 169.12 | 4.80
3 | C[C@]12CC[C@H]3[C@@H](CCC4=CC(=O)CC[C@@]43C)[C@@H]1CC[C@@H]2O [testosterone] | in this order, show an increased relative binding affinity |  |  |  |  |  |  |  |  |  | 
